Tests used:
blast of rice = conditions: commercially available antibiotic chemical; cited from earlier work
Pyricularia oryzae = format: in vivo; conditions: blast of rice, 20 ppm in sprayed dilution
[1] = tested on: Colletotrichum lagenarium; assay: Test on control effect on anthracnose in cucumber; format: in vivo; conditions: 1000 ppm in sprayed composition
Protocol: Cucumber seedlings (Sagami Hanpaku variety) planted one plant per pot were used for the test, and each test area included three pots. After seeding was carried out by using Kureha Soil, the pots were kept for 2 weeks in an air-conditioned green house (maximum daytime temperature=28° C., minimum night temperature=20° C., light illumination time=12 hours per day, light source=sunglow lamp) to grow the cucumber plants.
A chemical composition having a predetermined concentration, which was prepared according to the method described in Example 3 was sprayed on the plants by a spray gun and the plants were air-dried for 2 hours in a green house.
Spores of a pathogenic fungus causing anthracnose in cucumber (Colletotrichum lagenarium), which had been cultured for 10 days at 23° C. in an agar slant culture medium of sweet corn, were taken into sterilized water, and one drop of a spreader was added to 50 cc of the spore suspension. In an inoculation box, the spore suspension was sprayed on the plants in an amount of 50 cc per 50 seedling by a spray gun to effect inoculation. […]
The total number of disease spots on leaves of the plants of each area was counted and the control value was calculated according to the following formula: [formula]

plants = assay: Phytotoxicity (general statement); format: in vivo

Row | Molecule | Specificity of controlling effect (blast of rice) | Control Value (Pyricularia oryzae) | Control Value [1] | Phytotoxicity (plants)
1 | CN(CC[C@H](N)CC(=O)N[C@H]1C=C[C@H](n2ccc(N)nc2=O)O[C@@H]1C(=O)O)C(=N)N [Blasticidin S, blasticidinS-benzylaminobenzene-sulfonate] | specific effect on blast of rice alone | 95% |  | 
2 | manganous ethylene1,2-bis-dithiocarbomate- [Maneb-Dithane] |  |  | 95% | causes phytotoxicity

From patent US4181714A (priority 1977, dated 1980)
